# Experimental data from patent US12577231B2, “Androgen receptor PROTACS” (GlaxoSmithKline Intellectual Property Development Limited, priority 2023, dated 2026).
# Where a chain is given by its changes, count along the chain named.
# Tests used:
# Androgen receptor W742C = target: T1, Androgen receptor W742C (Homo sapiens, UniProt P10275, W742C); test: Degradation of overexpressed Androgen Receptor in A549 cells (HiBiT), W742C; type: cell-based; conditions: A549 cells overexpressing AR W742C, cycloheximide, 24 hours
# T1 construct: expressed in transfected cells; host or cells: A549, transduced, puromycin selected
# T1 sequence (P10275 1-920 W742C): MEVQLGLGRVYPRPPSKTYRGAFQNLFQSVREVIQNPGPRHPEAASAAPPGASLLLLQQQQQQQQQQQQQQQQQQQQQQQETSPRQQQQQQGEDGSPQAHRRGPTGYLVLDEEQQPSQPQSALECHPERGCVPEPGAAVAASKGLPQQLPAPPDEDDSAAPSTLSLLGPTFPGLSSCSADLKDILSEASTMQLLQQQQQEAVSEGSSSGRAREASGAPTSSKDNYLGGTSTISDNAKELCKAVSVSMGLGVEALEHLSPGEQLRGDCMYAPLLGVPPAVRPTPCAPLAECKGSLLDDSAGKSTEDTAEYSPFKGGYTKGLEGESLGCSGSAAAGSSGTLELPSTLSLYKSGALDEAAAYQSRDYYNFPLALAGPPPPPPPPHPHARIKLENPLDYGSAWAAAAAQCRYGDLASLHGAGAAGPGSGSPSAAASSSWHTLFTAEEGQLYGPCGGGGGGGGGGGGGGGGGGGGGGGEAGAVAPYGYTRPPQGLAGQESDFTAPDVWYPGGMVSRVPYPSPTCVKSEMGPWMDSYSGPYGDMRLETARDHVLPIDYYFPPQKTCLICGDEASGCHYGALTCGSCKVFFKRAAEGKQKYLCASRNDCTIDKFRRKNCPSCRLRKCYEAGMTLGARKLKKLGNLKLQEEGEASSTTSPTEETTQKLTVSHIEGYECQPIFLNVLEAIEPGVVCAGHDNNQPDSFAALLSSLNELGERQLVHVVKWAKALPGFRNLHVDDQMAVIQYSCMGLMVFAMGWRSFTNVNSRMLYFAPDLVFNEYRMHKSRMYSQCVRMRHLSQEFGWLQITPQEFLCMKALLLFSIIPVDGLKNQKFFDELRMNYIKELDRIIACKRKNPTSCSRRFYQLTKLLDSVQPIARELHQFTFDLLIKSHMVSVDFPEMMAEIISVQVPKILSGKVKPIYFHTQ
# Experimental: (§1) A549 cells were transduced to express wild type androgen receptor and Androgen receptor containing the following mutations (L702H, H875Y W742C W742L F877L, T878A and T878A/H875Y) with HiBiT tags. Transduced cells following puromycin selection were maintained in a humidified incubator (at 37° C. and 5% CO2 in the DMEM medium supplemented with 1% (v/v) Pen/Strep, 1% (v/v) Glutamax and 10% (v/v) FBS. A549 cells expressing each AR construct were detached from plate and counted. Cell suspensions at density 0.2 million per mL were prepared. Cell suspension was supplemented with 100 μg/mL of cycloheximide to block protein synthesis. Cells were preincubated with cycloheximide for 1 hr before seeding. Cells were seeded onto 384-well plate at density of 5,000 in 25 μL per well. A two fold serial dilution of test compounds, starting from 1 μM (row A) in 2-fold serial dilution series across the column using Tecan D300e dispenser. […]
# (§2) Nano-Glo HiBiT Lytic reagent was prepared by adding LgBiT protein and Nano-Glo® substrate to lytic buffer pre-equilibrated at room temperature following manufacturer protocol (https://www.promega.co.uk/resources/protocols/technical-manuals/101/nanoglo-luciferase-assay-system-protocol). […] The plates were then centrifuged (100×G, 1 min) and incubated on shaker for 10 mins before taking readings on Pherastar Luminescence microplate reader. […]
# [1] = target: T2, Androgen receptor T878A/H875Y (Homo sapiens, UniProt P10275, H875Y/T878A); test: Degradation of overexpressed Androgen Receptor in A549 cells (HiBiT), T878A/H875Y; type: cell-based; conditions: A549 cells overexpressing AR T878A.H875Y, cycloheximide, 24 hours
# T2 construct: expressed in transfected cells; host or cells: A549, transduced, puromycin selected
# T2 sequence (P10275 1-920 H875Y/T878A): T1 sequence (P10275 1-920 W742C) with C742W, H875Y, T878A
# Experimental: as §1, §2
smiles,measurement,setting,value
"COc1cc(O[C@H]2C(C)(C)[C@H](NC(=O)c3ccc(N4CCC(CN5CCC(n6ncc7c(N8CCC(=O)NC8=O)nccc76)CC5)CC4)c(F)c3)C2(C)C)ccc1C#N [Example 20, N-((1r,3r)-3-(4-Cyano-3-methoxyphenoxy)-2,2,4,4-tetramethylcyclobutyl)-4-(4-((4-(4-(2,4-dioxotetrahydropyrimidin-1(2H)-yl)-1H-pyrazolo[4,3-c]pyridin-1-yl)piperidin-1-yl)methyl)piperidin-1-yl)-3-fluorobenzamide]",Summary pXC50,Androgen receptor W742C,8.57
same,Summary pXC50,[1],8.57
